The values below come from ChEMBL document CHEMBL1201862, “PubChem BioAssay data set” (2004).

The source made the active and inactive calls.

Assay [1] is described as follows: HeLa 2N DNA content increase, dose response, cell-based, IC50 (AID 1117349). Type of assay: functional.
A short description of assay [2]: Concentration-dependent survival of SW480 colon cancer line, luminescence detection with CellTiter-Glo, half-maximal inhibitory concentration (AID 1117338). Type of assay: functional.
A short description of assay [3]: RKO cell viability reduction, dose response, CellTiter-Glo luminescence (AID 1117322). Type of assay: functional. Background: Cellular ATP, detected with luciferase, serves as a proxy for viable cell number.
A short description of assay [4]: cytotoxicity toward HCT116 cells – cell-based, CellTiter-Glo luminescence, IC50, dose response (AID 1117332). It is filed as functional. The note with it: HCT-116.
Assay [5] can be described thus: SNU-C1 cell viability reduction, dose response, CellTiter-Glo luminescence (AID 1117323). It is filed as functional, cell-based.
Assay [6] is described as follows: cytotoxicity toward Colo320 cells – cell-based, CellTiter-Glo luminescence, IC50, dose response (AID 1117334). Type of assay: functional. The note with it: COLO 320.
The nature of assay [7]: HeLa 4N DNA content increase, dose response, cell-based, IC50 (AID 1117351). It is filed as functional.
The nature of assay [8]: cytotoxicity toward HT-29 cells – cell-based, CellTiter-Glo luminescence, IC50, dose response (AID 1117330). Type of assay: functional.
The nature of assay [9]: CellTiter-Glo luminescent dose response of DLD-1 viability loss (AID 1117352). Type of assay: functional.
The nature of assay [10]: HCT116 cell viability decrease, GSK3B pretreatment – CellTiter-Glo, IC50, dose response (AID 1117339). The note with it: HCT-116. Type of assay: functional.
Assay [11] in a line: Late stage results for the probe development effort to identify inhibitors of Plasmodium falciparum gametocytes: Luminescence-based cell-based high throughput dose response assay to identify inhibitors of viability of late stage Plasmodium falciparum gametocytes. Type of assay: functional.
Assay [12] is described as follows: inhibitors of firefly luciferase expression or activity, dose response, H4 neuroglioma cells, luminescence (AID 1990). It is filed as functional, cell-based.
A short description of assay [13]: luciferase reporter signal reduction – luminescence, H4-C neuroglioblastoma cells, dose response (AID 2458).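 Also: H4 neuroglioblastoma cells stably carrying a luciferase reporter gene fusion.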 It is filed as functional, cell-based. A general note: A reporter such as luciferase makes a cellular process visible.
For assay [14], the system named is BJ. The experiment in a line: cytotoxicity toward BJ-TERT fibroblasts, dose response, cell-based, RAS-independent, luminescence (AID 1933). It is filed as functional. The note with it: Homo sapiens.
Assay [15] is described as follows: cells. Type of assay: functional, cell-based.
The nature of assay [16]: Luminescence Cell-Based Dose Response HTS to Identify Inhibitors of 5'UTR Stem-Loop Driven Prion Protein mRNA Translation in H4 Neuroglioblastoma Cells. [Related pubchem assays: 1827 (Project Summary), 1813 (Primary HTS)]. Type of assay: functional.
The nature of assay [17]: inhibitors of SNCA 5'UTR-driven reporter translation, confirmation, H4 neuroglioma cells, luminescence (AID 1988). Type of assay: functional, cell-based.
For assay [18], the system named is BJ. The experiment in a line: cells. The following applies: Homo sapiens. It is filed as functional, cell-based.
Assay [19] in a line: cytotoxicity toward DRD oncogenic fibroblasts, dose response, cell-based, non-viral oncogenic, luminescence (AID 1934). The note with it: Homo sapiens. Type of assay: functional.
A short description of assay [20]: inhibitors of SNCA 5'UTR-driven translation, confirmation, luminescence, H4 neuroglioblastoma cells, dose confirmation (AID 2454).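 Also: H4 neuroglioblastoma cells carrying an alpha-synuclein 5'UTR luciferase reporter; potency for inhibition of the luciferase signal.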 Type of assay: functional, cell-based.
The subject of assay [21] is BJ. The experiment in a line: cytotoxicity toward Ras-transformed BJeLR fibroblasts, dose response, cell-based, alamar blue fluorescence, cherrypicked samples (AID 2631).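 Also: confirmatory dose-response assay in RAS-dependent BJ fibroblasts engineered with TERT, LT and ST, with cytotoxicity read by fluorescence.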 It is filed as functional. The note with it: Homo sapiens. (The colour change of resazurin is a common sign of viable cells or microbes.)
The target of assay [22] is Paired box protein Pax-8 (Homo sapiens, UniProt Q06710). The experiment in a line: inhibitors of PAX8-driven TPO luciferase reporter, dose response, RMG-I cells, cherry-pick (AID 687027).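 Also: luciferase reporter driven by Pax8 target thyroperoxidase promoter measured by SteadyGlo luminescence.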 Type of assay: functional, cell-based.
Sequence of Paired box protein Pax-8 (Q06710 whole entry): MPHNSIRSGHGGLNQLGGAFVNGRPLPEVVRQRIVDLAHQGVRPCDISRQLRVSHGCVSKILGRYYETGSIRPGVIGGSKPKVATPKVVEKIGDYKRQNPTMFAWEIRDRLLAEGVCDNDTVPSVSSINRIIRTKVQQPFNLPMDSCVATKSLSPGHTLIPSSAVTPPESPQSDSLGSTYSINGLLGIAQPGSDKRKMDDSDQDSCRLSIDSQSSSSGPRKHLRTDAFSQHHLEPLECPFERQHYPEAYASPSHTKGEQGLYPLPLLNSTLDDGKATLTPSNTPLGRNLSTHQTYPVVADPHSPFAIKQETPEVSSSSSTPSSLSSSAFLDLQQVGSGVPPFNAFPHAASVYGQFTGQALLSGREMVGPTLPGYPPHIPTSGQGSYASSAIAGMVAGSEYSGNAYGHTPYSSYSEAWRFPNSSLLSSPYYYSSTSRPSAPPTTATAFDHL
Assay [23] in a line: PAX2 cell-based inhibition, dose response, selectivity assay for PAX8 inhibitor project, plate reader, dry powder samples (AID 743048).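 Also: HEK293 cells carrying a WT1 promoter luciferase reporter driven by expressed Pax2; potency is for inhibition of Pax2 driven reporter signal.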 It is filed as functional.
Assay [24] is described as follows: cytotoxicity in COV362 ovarian cancer cells, dose response, cytotoxicity control for PAX8 inhibitor project, cell-based, plate reader, dry powder, SA12 (AID 743144). Type of assay: functional.
Assay [25] in a line: IOSE-T80 ovarian epithelial cell cytotoxicity, dose response, cytotoxicity control for PAX8 inhibitor project, plate reader, dry powder samples (AID 743045). It is filed as functional, cell-based.
Assay [26] in a line: A2780 ovarian cancer cell cytotoxicity, dose response, cytotoxicity control, plate reader, dry powder samples (AID 743046). Type of assay: functional, cell-based.
The nature of assay [27]: NIH:OVCAR-3 ovarian cancer cell cytotoxicity, dose response, PAX8 inhibitor project, plate reader, dry powder samples (AID 743044). Type of assay: functional, cell-based.
Assay [28] is described as follows: PAX5 activity inhibitors, dose response, selectivity assay for PAX8 inhibitor project, cell-based, plate reader, dry powder samples (AID 743047).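 Also: HEK293 cells carrying a Pax5 driven CD19 promoter luciferase reporter; potency of inhibitors that lower reporter luminescence.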 Type of assay: functional.
A short description of assay [29]: IGROV1 ovarian cancer cell cytotoxicity, dose response, PAX8 inhibitor project, plate reader, dry powder samples (AID 743043). Type of assay: functional, cell-based. The note with it: IGROV-1.
The nature of assay [30]: cytotoxicity in OVCAR4 cells, dose response, cytotoxicity control for PAX8 inhibitor project, cell-based, plate reader, dry powder, SA11 (AID 743150). Type of assay: functional. The note with it: OVCAR-4.
The nature of assay [31]: cytotoxicity in COV434 cells, dose response, cytotoxicity control for PAX8 inhibitor project, cell-based, plate reader, dry powder, SA7 (AID 743145). Type of assay: functional.
Assay [32] in a line: cytotoxicity in OV-90 ovarian cancer cells, dose response, PAX8 inhibitor project, cell-based, plate reader, dry powder, SA8 (AID 743149). Type of assay: functional.
Assay [33] in a line: cytotoxicity dependent on PAX8, dose response, cell-based, plate reader, dry powder (AID 743049). It is filed as functional.
Assay [34] concerns the target E3 ubiquitin-protein ligase Mdm2 (Homo sapiens, UniProt Q00987). The assay is described as follows: enhancers of MDM2-luciferase reporter signal, concentration-effect titration, project on inhibitors of MDM2 ubiquitin ligase, cellular assay, luminescent readout, 384-well plate format (AID 1394).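 Also: MDM2 E3 inhibitors raise luminescence so EC50 is for signal enhancement.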 Type of assay: functional.
In assay [35] the target is T1, Mannose-6-phosphate isomerase (Homo sapiens, UniProt P34949).
T1 sequence (P34949 whole entry): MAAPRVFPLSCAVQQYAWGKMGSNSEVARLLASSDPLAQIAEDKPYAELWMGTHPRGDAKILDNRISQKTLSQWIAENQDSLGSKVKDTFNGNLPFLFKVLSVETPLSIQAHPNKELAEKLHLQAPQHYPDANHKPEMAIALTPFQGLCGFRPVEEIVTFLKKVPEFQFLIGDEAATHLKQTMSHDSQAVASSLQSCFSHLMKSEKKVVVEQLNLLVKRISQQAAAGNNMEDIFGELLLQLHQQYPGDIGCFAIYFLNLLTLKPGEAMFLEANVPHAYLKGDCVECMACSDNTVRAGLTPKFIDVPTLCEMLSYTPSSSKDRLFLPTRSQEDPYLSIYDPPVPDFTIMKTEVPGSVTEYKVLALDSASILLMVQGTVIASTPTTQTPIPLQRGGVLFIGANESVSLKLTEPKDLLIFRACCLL
The assay is described as follows: human PMI inhibitors, high substrate, primary screen, biochemical, fluorescence intensity, high mannose 6-phosphate (AID 1220).

A short description of assay [36]: cells. It is filed as functional, cell-based. This is another data set of the same source.
For assay [37], the target named is T2, Trace amine-associated receptor 1 (Homo sapiens, UniProt Q96RJ0).
T2 sequence (Q96RJ0 whole entry): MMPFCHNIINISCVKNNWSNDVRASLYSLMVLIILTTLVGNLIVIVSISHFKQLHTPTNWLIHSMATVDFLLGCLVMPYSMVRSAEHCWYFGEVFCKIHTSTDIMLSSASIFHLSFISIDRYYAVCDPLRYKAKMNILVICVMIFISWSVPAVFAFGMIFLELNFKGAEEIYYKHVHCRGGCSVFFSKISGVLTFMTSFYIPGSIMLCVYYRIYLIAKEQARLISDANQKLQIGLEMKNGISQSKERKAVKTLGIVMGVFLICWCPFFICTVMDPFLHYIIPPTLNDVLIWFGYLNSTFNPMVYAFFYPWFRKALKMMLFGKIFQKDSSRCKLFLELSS
The assay is described as follows: Fluorescence-based cell-based high throughput dose response assay to identify agonists of the human trace amine associated receptor 1 (TAAR1). Type of assay: functional.

In assay [38] the target is T2, Trace amine-associated receptor 1. The assay is described as follows: Counterscreen for agonists of the human trace amine associated receptor 1 (hTAAR1): Fluorescence-based cell-based high throughput dose response assay to identify hTAAR1 agonist that also desensitize TAAR1 receptor response. It is filed as functional.
Assay [39] in a line: cells. Type of assay: functional, cell-based. The source holds these as a separate data set.
Assay [40] deals with T3, Low molecular weight phosphotyrosine protein phosphatase (Homo sapiens, UniProt P24666).
T3 sequence (P24666 whole entry): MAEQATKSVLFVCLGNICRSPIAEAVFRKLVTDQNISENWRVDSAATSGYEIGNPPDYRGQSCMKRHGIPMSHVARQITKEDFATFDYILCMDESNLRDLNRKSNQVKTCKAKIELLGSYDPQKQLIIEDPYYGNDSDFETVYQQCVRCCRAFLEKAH
The assay is described as follows: LMPTP phosphatase inhibitors, dose response, biochemical, OMFP substrate, fluorescence intensity, set 2 (AID 743307). It is filed as functional.

For assay [41], the target named is T3, Low molecular weight phosphotyrosine protein phosphatase. The assay is described as follows: LMPTP phosphatase inhibitors, colorimetric pNPP readout, dose response, orthogonal assay, biochemical, absorbance, pNPP substrate, LMPTP-A isoform, set 2 (AID 743308). Type of assay: functional.

Sequence of E3 ubiquitin-protein ligase Mdm2 (Q00987 whole entry): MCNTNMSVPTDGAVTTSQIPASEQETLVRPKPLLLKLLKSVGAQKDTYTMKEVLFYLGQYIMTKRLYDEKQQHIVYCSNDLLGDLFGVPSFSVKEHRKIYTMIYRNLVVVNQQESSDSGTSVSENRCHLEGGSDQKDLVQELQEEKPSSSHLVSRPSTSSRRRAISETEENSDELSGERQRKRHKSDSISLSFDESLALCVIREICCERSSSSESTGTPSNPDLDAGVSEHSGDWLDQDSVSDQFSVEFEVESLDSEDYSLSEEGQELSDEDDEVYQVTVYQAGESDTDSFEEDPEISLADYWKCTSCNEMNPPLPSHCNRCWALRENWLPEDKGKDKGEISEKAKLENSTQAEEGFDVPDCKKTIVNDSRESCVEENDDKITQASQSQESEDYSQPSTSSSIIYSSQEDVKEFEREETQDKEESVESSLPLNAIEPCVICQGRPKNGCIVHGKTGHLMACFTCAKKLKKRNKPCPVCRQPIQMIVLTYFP

The term IC50 denotes the midpoint of a concentration-inhibition curve. On to `Cc1cc(N)c2ccccc2[n+]1CCCCCCCCCC[n+]1c(C)cc(N)c2ccccc21`, for which the IC50 in assay [1] was > 10 µM (inactive); in [2], 3.83 µM (active); in [3], 2.45 µM (active); in [4] it was > 20 µM (inactive); in [5], 1.29 µM (active); in assay [6], 15.9 µM (inactive). Besides, the IC50 is > 10 µM (inactive) in assay [7], > 20 µM (inactive) in assay [8], 5.72 µM (inactive) in assay [9] and > 20 µM (inactive) in assay [10].

Consider `Cc1cccc(-c2nn(-c3ccccc3)cc2C(=O)Nc2nccs2)c1`, for which the IC50 in [11] is > 74.4 µM (inactive).

What is called EC50 is the concentration giving half of the maximal effect. For orientation: AC50 means the concentration giving half of the maximal activity seen. In the case of `Cc1cccc(C)c1NS(=O)(=O)c1ccc(-c2cnc(C3CC3)o2)cc1`, the EC50 in assay [12] is < 0.1 µM (active); in [13], 0.113 µM (active); in [14] it was 0.158 µM (active); in assay [15] it was 0.229 µM (active); in assay [16], > 120 µM (not active); in assay [17] it was < 0.1 µM (active). For the same compound, the EC50 in [18] is 0.751 µM (inconclusive); in assay [19], 60.4 µM (inconclusive); in [20], 0.208 µM (active); in [21], < 0.104 µM (active). For the same compound, the AC50 in assay [22] was 1.74 µM (active); in [23] it was 22.4 µM (active); in assay [24] it was 0.401 µM (active); in [25] it was 0.651 µM (active); in assay [26] it was 2.06 µM (active); in [27], 12.1 µM (active). The AC50 in assay [28] was 4.58 µM (active); in assay [29], 5.04 µM (active); in assay [30], 0.366 µM (active); in assay [31], 0.329 µM (active); in [32] it was 0.973 µM (active); in [33] it was 5.36 µM (active).

On to `O=[N+]([O-])c1ccc2c(c1NCCc1ccccc1)=NC1(CCCCC1)[N+]=2[O-]`, for which the results for the EC50 in [34], in assay [37] and in [39] were 393 µM (not active), 3.09 µM (active) and > 29.9 µM (inactive), respectively. For the same compound, the figures for the IC50 in assay [35], in assay [36] and in assay [38] were > 50 µM (not active), > 29.9 µM (inactive) and 8.86 µM (active), respectively.

In the case of `FC(F)(F)c1cccc(-c2cc(NCCCN3CCCCC3)c3ccccc3n2)c1`, the IC50 in [40] was 2.66 µM (active); in assay [41] it was 6.94 µM (active).
